# Assay results reported in ChEMBL document CHEMBL3046256, “Sesquiterpene lactones: antispasmodic principles of the freshwater algae Hydrodictyon reticulatum” (Med Chem Res, 2012).
# How the values were obtained:
# Jejunum = test: Antispasmodic activity in Oryctolagus cuniculus (rabbit) jejunum assessed as K+-induced contraction at 1 mg/ml; type: functional
# Ileum = test: Ratio IC50 for papaverine to IC50 for compound for antispasmodic activity in rat ileum; type: functional
SMILES,inhibition at 1000 µg/mL (Jejunum) [%],Ratio IC50 (Ileum)
C=C1CC[C@H]2O[C@]2(C)CC[C@@H]2[C@@H]1CC2(C)C [(-)-CARYOPHYLLENE OXIDE],31.6,0.071
COc1ccc(Cc2nccc3cc(OC)c(OC)cc23)cc1OC [PAPAVERINE],–,1
COc1ccc(CCN(C)CCCC(C#N)(c2ccc(OC)c(OC)c2)C(C)C)cc1OC (stereo not drawn) [VERAPAMIL],67.5,–
CO[C@]1(C)C[C@H](O)[C@@H]2[C@H](OC(=O)[C@H]2C)[C@@H]2[C@H]1C[C@@H](O)[C@@]2(C)O,43.4,0.09
CO[C@]1(C)C[C@H](O)[C@@H]2[C@H](OC(=O)[C@H]2C)[C@@H]2[C@H]1CC[C@@]2(C)O,39.5,0.083
